Biological target: T1, Cytochrome b-245 heavy chain (Homo sapiens, UniProt P04839)
T1 sequence (P04839 whole entry): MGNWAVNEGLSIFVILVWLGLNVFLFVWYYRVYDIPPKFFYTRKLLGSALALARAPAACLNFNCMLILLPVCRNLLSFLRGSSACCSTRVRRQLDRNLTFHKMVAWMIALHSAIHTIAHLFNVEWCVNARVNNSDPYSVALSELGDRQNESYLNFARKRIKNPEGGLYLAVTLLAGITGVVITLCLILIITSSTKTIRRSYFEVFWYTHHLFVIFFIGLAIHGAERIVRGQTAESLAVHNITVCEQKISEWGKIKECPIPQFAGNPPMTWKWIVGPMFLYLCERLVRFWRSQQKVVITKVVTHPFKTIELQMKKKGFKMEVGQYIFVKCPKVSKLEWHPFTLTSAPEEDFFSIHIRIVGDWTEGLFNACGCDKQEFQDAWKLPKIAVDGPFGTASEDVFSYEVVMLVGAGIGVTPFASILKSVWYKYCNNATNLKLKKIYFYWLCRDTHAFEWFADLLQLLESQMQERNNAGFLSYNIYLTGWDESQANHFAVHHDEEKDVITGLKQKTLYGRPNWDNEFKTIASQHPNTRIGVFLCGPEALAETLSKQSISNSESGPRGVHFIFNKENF
Experiment: PubChem AID 435013

IC50 [µM]	SMILES
> 10	CN(C)c1ccc(CN=Nc2c(Cl)cncc2Cl)cc1
> 50	Oc1c(Br)cc(CN=Nc2c(Cl)cncc2Cl)cc1Br [4-[[2-[3,5-bis(chloranyl)pyridin-4-yl]hydrazinyl]methylidene]-2,6-bis(bromanyl)cyclohexa-2,5-dien-1-one]

From BindingDB's records for doi:10.7270/Q25719HD (The Scripps Research Institute Molecular Screening Center, 2010)
